# Source: paper PMC9738179, “New Nucleic Base-Tethered Trithiolato-Bridged Dinuclear Ruthenium(II)-Arene Compounds: Synthesis and Antiparasitic Activity” (Molecules, 2022)
# Values joined by “and” are separate entries in the source; they are usually repeats but may differ in a detail not shown here. Identical values can stand only once.
# Assays:
# [1] = tested on: T. brucei bloodstream forms; set-up: method as in PMID 34639127; details: ref [126]; cited from earlier work
# [2] = tested on: T. gondii β-gal tachyzoites; assay: Dose-response study (IC50) against T. gondii β-gal tachyzoites; assay type: cell-based, Toxoplasma gondii; details: 8 serial concentrations 0.007-1 µM, 72 h
# Method: (§1) The screening cascade for the compounds was described in former studies. All compounds were prepared as 1 mM stock solutions from powder, in dimethyl sulfoxide (DMSO, Sigma, St. Louis, MO, USA). For in vitro activity and cytotoxicity assays, HFF were seeded at 5 × 10^3/well and allowed to grow to confluence in phenol-red free culture medium at 37 °C and 5% CO2. T. gondii tachyzoites were released from host cells, and HFF monolayers were infected with freshly isolated parasites (1 × 10^3/well), and compounds were added concomitantly with infection.
# For the dose-response study (IC50 values), measurements for T. gondii β-gal were performed. The selected compounds were added concomitantly with infection in 8 serial concentrations 0.007, 0.01, 0.03, 0.06, 0.12, 0.25, 0.5, and 1 μM.
# (§2) To measure the activity of the tested compound on T. gondii β-gal parasites, after a period of 72 h of culture at 37 °C/5% CO2, the culture medium was aspirated, and cells were permeabilized by adding 90 μL PBS (phosphate buffered saline) with 0.05% Triton X-100. Next, 10 μL of 5 mM chlorophenolred-β-D-galactopyranoside (CPRG; Roche Diagnostics, Rotkreuz, Switzerland, substrate for the β-galactosidase) in PBS were added. Release of chlorophenol red was measured at 570 nm using an EnSpire® multimode plate reader (PerkinElmer, Inc., Waltham, MA, USA). A 100% proliferation of T. gondii β-gal was assigned to control parasites treated only with DMSO. For the primary screening at 0.1 and 1 μM, the activity was measured as the release of chlorophenol red over time and was calculated as percentage from the respective DMSO treated control, which represented 100% of T. gondii β-gal growth.
# For the IC50 assays, the activity measured as the release of chlorophenol red over time was proportional to the number of live parasites down to 50 per well as determined in pilot assays. IC50 values were calculated after the logit-log-transformation of relative growth and subsequent regression analysis. All calculations were performed using the corresponding software tool contained in the Excel software package (Microsoft, Redmond, WA, USA).
# [3] = tested on: human foreskin fibroblasts (HFF); assay: Cytotoxicity in non-infected HFF by alamarBlue assay; assay type: cell-based
# Method: as §1
# Cytotoxicity assays using uninfected confluent HFF host cells were performed by the alamarBlue assay as previously reported. Confluent HFF monolayers in 96 well-plates were exposed to 0.1, 1, and 2.5 μM of each compound. Non-treated HFF as well as DMSO controls (0.01%, 0.1%, and 0.25%) were included. After 72 h of incubation at 37 °C/5% CO2, the medium was removed, and the plates were washed once with PBS. Resazurin suspended in PBS to a final concentration of 0.01 g/L was added to each well (200 μL/well). Fluorescence was measured at excitation wavelength 530 nm and emission wavelength […] using an EnSpire® multimode plate reader (PerkinElmer, Inc, Waltham, MA, USA). The cytotoxicity values were calculated as percentage of the respective DMSO control, which represented 100% of HFF viability.
# [4] = tested on: T. gondii β-gal tachyzoites; assay: Primary screening: T. gondii β-gal proliferation in HFF monolayers at 0.1 and 1 µM (CPRG readout); assay type: cell-based, Toxoplasma gondii; details: 0.1 µM, tachyzoites cultured in HFF, 72 h, relative to DMSO control
# Method: as §1
# In the primary screening, HFF monolayers infected with T. gondii β-gal were treated with 0.1 and 1 µM of each compound, or the corresponding concentration of DMSO (0.01 or 0.1%, respectively) as controls and were incubated for 72 h at 37 °C/5% CO2 as previously described.
# as §2
smiles,measurement,setting,value
CC(C)(C)c1ccc(C[S+]2[Ru-]3[S+](Cc4ccc(C(C)(C)C)cc4)[Ru-]2[S+]3c2ccc(CC(=O)OCCn3cnc4c(N)ncnc43)cc2)cc1.Cc1ccc(C(C)C)cc1.Cc1ccc(C(C)C)cc1.[Cl-] (centres unmarked) [Compound 14],Activity against T. brucei bloodstream forms,[1],highly active
same,IC50,[2],0.059 µM
same,HFF Viability (%),"[3]; 0.1 µM, non-infected HFF, 72 h, relative to DMSO control, triplicate",95 ± 11%
same,HFF Viability (%),"[3]; 2.5 µM, control 0.25% DMSO = 100%, six replicates",low toxicity and medium toxicity and 76%
same,T. gondii β-gal Growth (%),[4],12 ± 1%
